From patent US8927517B2, “Factors controlling skin and hair color” (Kao Corporation, priority 2012, dated 2015)

Key:
[1] = system: Skin tissues from a donor; assay: Lightness (L* value) of cultured human skin tissue with autophagy-regulating agent; format: cell-based; conditions: verapamil 10 μM, rapamycin 1 μM or HCQ 10 μM; cultured 8 days; colorimeter; FIG. 10
Procedure: Skin tissues were collected from a donor, and were then cultured in the presence or absence of an autophagy inducer verapamil (10 μM) or rapamycin (1 μM), or an autophagy inhibitor hydroxychloroquine (HCQ, 10 μM). After completion of the culture for 8 days, the lightness (L* value) of the cultured skin was measured with a colorimeter (Colorimeter; cyberDERM).

[2] = system: 3D-HSSs (three-dimensional human skin substitutes containing NHEK and NHEM); assay: 3D-HSSs cultured with autophagy inducer or inhibitor (photographs, Western blotting); format: cell-based; conditions: HCQ 10 μM with endothelin-1 and SCF, 14 days
Procedure: Three-dimensional culture human skin models (3D-human skin substitutes; 3D-HSSs) were purchased from MatTek Co. (MEL-300A or B), and they were then maintained at 37° C. in 5% CO2 in EPI-100NMM-113 medium (MatTek Co.) according to a production manual included therewith.
3D-HSSs (three-dimensional human skin substitutes, reconstituted epidermal models containing NHEK and NHEM) were cultured together with an autophagy inducer verapamil (10 μM) or rapamycin (1 μM) for 14 days. The medium was exchanged with a fresh one every other day. After completion of the culture, Western blotting analysis was carried out on the culture, using a p62-specific antibody (MBL International) and an LC3-specific antibody (Cosmo Bio Co. Ltd. or MBL International) by the same procedures as those applied in Reference Example 1.
On the other hand, 3D-HSSs were cultured together with an autophagy inhibitor hydroxychloroquine (HCQ, 10 μM) in the presence of endothelin-1 and SCF for 14 days, and Western blotting analysis was then carried out on the culture.

Row | SMILES | lightness (L* value) of the cultured skin [1] | darkening of 3D-HSSs ([2]; FIG. 9C) | amount of p62 ([2]; FIG. 9D)
1 | CCN(CCO)CCCC(C)Nc1ccnc2cc(Cl)ccc12 (stereo not shown) [hydroxychloroquine] | decreased | became darkened | increased
2 | COc1ccc(CCN(C)CCCC(C#N)(c2ccc(OC)c(OC)c2)C(C)C)cc1OC (stereo not shown) [verapamil] | increased |  | 
